# Reference: patent US20100305121A1, “NOVEL ANTAGONISTS OF THE HUMAN FATTY ACID SYNTHASE THIOESTERASE” (priority 2006, published 2010)
# How the values were obtained:
# human FAS TE [1] = target: T1, human FAS TE (Homo sapiens, UniProt P49327); assay: Fluorogenic 4-MUH screening assay of recombinant FAS TE (primary and secondary screen); type: biochemical
# T1 construct: Expression of the recombinant thioesterase domain of FAS using pTrcHis-TOPO vector (Invitrogen) was as described in Kridel et al. (2004); His tag (from pTrcHis-TOPO vector)
# T1 sequence (P49327 2207-2511 limits assumed): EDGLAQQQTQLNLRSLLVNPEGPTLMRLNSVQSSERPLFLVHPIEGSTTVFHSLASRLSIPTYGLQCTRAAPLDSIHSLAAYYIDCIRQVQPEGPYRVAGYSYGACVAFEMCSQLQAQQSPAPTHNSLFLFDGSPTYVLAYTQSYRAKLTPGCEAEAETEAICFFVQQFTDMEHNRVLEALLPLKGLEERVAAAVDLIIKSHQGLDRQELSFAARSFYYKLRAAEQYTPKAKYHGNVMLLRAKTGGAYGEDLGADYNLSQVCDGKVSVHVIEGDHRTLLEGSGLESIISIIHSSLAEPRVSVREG
# Cytotoxicity, MTS assay = settings: human, MDA-MB-435 breast carcinoma cells, Cytotoxicity IC50 (μM), MDA-MB-435 cells
# [2] = tested on: MDA-MB-435 breast carcinoma cells; assay: Cytotoxicity, MTS assay; settings: read-out: Cytotoxicity IC50, MDA-MB-435 cells, 48 hours
# FAS holoenzyme [3] = target: T2, FAS holoenzyme (Homo sapiens, UniProt P49327); assay: Fatty acid synthesis in vitro, [14C] malonyl-CoA incorporation in MDA-MB-435 cell lysates; type: biochemical; settings: for effect on fatty acid biosynthesis in cell lysates: 6.3 to 50 μM
# T2 construct: Fatty acid synthesis by the FAS holoenzyme in cell lysates was measured by incorporation of; endogenous in cells; host or cells: MDA-MB-435 cell lysate
# T2 sequence (P49327 2-2511 limits assumed): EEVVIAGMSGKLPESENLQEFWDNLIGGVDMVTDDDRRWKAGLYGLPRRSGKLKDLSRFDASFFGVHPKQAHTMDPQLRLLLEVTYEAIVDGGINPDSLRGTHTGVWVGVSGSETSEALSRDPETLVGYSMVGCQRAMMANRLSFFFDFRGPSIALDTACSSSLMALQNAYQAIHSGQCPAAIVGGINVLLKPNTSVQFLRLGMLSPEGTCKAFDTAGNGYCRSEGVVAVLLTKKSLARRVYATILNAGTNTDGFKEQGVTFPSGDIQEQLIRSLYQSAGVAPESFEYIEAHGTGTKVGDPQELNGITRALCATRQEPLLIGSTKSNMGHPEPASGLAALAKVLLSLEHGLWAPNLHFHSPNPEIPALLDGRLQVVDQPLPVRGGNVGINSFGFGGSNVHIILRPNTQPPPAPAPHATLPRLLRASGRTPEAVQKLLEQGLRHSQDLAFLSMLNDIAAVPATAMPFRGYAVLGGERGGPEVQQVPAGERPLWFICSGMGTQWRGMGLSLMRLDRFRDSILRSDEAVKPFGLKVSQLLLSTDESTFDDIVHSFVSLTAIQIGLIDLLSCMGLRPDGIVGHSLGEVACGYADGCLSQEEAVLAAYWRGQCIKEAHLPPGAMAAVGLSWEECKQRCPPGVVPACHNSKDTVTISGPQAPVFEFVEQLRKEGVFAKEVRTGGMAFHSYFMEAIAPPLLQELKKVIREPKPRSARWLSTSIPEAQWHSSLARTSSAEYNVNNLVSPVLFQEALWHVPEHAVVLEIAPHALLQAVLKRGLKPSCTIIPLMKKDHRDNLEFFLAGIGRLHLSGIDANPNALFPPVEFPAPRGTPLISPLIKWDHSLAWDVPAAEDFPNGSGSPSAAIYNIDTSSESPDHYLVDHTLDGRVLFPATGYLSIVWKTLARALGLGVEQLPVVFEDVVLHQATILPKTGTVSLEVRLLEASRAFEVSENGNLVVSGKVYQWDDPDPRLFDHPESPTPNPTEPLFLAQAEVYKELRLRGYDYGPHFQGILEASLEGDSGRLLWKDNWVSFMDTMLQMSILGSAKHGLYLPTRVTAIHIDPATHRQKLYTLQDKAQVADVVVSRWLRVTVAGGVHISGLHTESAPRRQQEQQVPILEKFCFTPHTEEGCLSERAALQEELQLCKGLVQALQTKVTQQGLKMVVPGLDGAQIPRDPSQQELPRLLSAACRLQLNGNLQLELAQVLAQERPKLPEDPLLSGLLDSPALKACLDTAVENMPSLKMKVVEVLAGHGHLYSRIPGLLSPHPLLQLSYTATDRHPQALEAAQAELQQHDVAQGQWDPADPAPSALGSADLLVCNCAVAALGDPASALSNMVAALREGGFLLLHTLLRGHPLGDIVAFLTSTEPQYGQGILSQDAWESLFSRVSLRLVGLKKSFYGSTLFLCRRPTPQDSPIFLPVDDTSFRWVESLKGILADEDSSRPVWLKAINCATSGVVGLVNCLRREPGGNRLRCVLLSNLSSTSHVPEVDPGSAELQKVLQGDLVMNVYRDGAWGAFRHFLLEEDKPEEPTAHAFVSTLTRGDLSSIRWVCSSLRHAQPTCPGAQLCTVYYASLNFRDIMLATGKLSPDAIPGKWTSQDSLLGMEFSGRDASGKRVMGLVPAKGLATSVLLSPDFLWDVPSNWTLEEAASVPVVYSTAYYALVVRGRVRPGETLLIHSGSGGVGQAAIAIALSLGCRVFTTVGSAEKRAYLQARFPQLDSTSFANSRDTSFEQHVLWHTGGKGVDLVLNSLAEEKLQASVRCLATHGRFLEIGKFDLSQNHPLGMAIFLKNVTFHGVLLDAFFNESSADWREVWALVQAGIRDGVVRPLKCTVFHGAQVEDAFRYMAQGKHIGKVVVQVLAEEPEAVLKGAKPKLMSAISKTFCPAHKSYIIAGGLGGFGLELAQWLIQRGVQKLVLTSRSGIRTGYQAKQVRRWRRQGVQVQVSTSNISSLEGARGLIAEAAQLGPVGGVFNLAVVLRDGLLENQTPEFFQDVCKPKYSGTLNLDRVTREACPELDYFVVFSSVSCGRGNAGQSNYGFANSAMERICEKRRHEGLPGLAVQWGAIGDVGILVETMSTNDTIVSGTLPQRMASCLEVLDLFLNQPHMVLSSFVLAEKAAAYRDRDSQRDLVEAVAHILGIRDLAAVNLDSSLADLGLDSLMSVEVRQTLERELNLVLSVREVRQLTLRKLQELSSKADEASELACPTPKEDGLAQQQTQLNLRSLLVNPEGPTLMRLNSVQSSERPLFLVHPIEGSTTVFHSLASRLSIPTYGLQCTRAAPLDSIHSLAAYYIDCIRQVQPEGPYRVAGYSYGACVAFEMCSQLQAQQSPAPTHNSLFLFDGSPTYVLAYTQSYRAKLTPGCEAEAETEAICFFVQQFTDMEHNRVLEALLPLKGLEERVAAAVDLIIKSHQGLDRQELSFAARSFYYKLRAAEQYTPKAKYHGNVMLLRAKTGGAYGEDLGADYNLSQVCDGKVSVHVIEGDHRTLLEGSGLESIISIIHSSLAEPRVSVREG
# FAS holoenzyme [4] = target: T2, FAS holoenzyme; assay: Activity-based probe FP-BODIPY labeling of FAS TE active site in MDA-MB-435 cell lysates; type: binding; settings: MB-MDA-435 cell lysates, 50 nM probe
# human FAS TE [5] = target: T1, human FAS TE; assay: Kinetic characterization of inhibitors, 4-MUH turnover by FAS TE; type: biochemical
structure (smiles),measurement,setting,value
"O=C1NC(=O)N(c2ccccc2)C(=O)/C1=C\C/C=C/c1ccccc1[N+](=O)[O-] [RDR914 (8), (Z)-5-((E)-4-(2-nitrophenyl)but-3-enylidene)-1 - phenylpyrimidine-2,4,6(1H,3H,5H)-trione]",IC50,human FAS TE [1],1.5 µM
same,IC50 at 48 h,"Cytotoxicity, MTS assay",9.5 µM
same,IC50,[2],9.53 µM
"CN(C)c1ccc(C/C=C2/C(=O)NC(=S)N(c3ccccc3F)C2=O)cc1 [RDR057 (10), (Z)-5-(2-(4-(dimethylamino)phenyl)ethylidene)-1-(2-fluorophenyl)-2-thioxodihydropyrimidine-4,6(1H,5H)-dione]",IC50,human FAS TE [1],4.3 µM
"O=C1NC(=O)C(=Cc2ccc(-c3cc([N+](=O)[O-])ccc3O)o2)C(=O)N1 [RDR256 (5), 5-((5-(2-hydroxy-5-nitrophenyl)furan-2-yl)methylene)pyrimidine-2,4,6(1H,3H,5H)-trione]",IC50,human FAS TE [1],9.2 µM
"O=C1NC(=S)NC(=O)C1=Cc1ccc(-c2ccc(C(=O)O)cc2)o1 [RDR423 (4), 4-(5-((4,6-dioxo-2-thioxotetrahydropyrimidin-5(6H)-ylidene)methyl)furan-2-yl)benzoic acid]",IC50,human FAS TE [1],5.3 µM
"CCOc1ccc(C/C=C2/C(=O)NC(=O)N(c3ccc(OCC)cc3)C2=O)cc1 [RDR506 (11), (Z)-1-(4-ethoxyphenyl)-5-(2-(4-ethoxyphenyl)ethylidene)pyrimidine-2,4,6(1H,3H,5H)-trione]",IC50,human FAS TE [1],14.5 µM
"CN1C(=O)NC(=O)/C(=C/c2ccc(-c3ccc([N+](=O)[O-])cc3Br)o2)C1=O [RDR102 (2), (Z)-5-((5-(2-bromo-4-nitrophenyl)furan-2-yl)methylene)-1-methylpyrimidine-2,4,6(1H,3H,5H)-trione]",IC50,FAS holoenzyme [3],~20 µM
same,effect on fatty acid biosynthesis in cell lysates,FAS holoenzyme [3],completely abrogated fatty acid biosynthesis
same,concentration of complete inhibition of FP-BODIPY binding,FAS holoenzyme [4],approximately 50 μM
same,IC50 at 48 h,"Cytotoxicity, MTS assay",14.2 µM
same,Ki,human FAS TE [5],0.1 µM
"COc1ccc(-c2ccc(C=C3C(=O)NC(=S)NC3=O)o2)c([N+](=O)[O-])c1 [RDR924 (3), 5-((5-(4-methoxy-2-nitrophenyl)furan-2-yl)methylene)-2-thioxodihydropyrimidine-4,6(1H,5H)-dione]",concentration of complete inhibition of FP-BODIPY binding,FAS holoenzyme [4],approximately 50 μM
same,IC50,human FAS TE [1],4.4 µM
"COc1ccc(N2C(=O)NC(=O)/C(=C/C/C=C/c3ccccc3)C2=O)c(OC)c1 [RDR755 (7), (Z)-1-(2,4-dimethoxyphenyl)-5-((E)-4-phenylbut-3-enylidene)pyrimidine-2,4,6(1H,3H,5H)-trione]",IC50 at 48 h,"Cytotoxicity, MTS assay",1.6 µM
same,IC50,[2],1.61 µM
same,Ki,human FAS TE [5],0.12 µM
same,type of inhibition of FAS TE (double reciprocal plots),human FAS TE [5],non-competitive inhibitors
"Cc1cccc(N2C(=O)NC(=O)/C(=C/Nc3ccccc3C)C2=O)c1 [RDR564 (12), (Z)-1-m-tolyl-5-((o-tolylamino)methylene)pyrimidine-2,4,6(1H,3H,5H)-trione]",IC50,human FAS TE [1],105 µM
"Cc1ccc(Br)c(-c2ccc(C=C3C(=O)NC(=S)NC3=O)o2)c1 [RDR019 (1), 5-((5-(2-bromo-5-methylphenyl)furan-2-yl)methylene)-2-thioxodihydropyrimidine-4,6(1H,5H)-dionc]",IC50,FAS holoenzyme [3],~20 µM
same,effect on fatty acid biosynthesis in cell lysates,FAS holoenzyme [3],completely abrogated fatty acid biosynthesis
same,IC50 at 48 h,"Cytotoxicity, MTS assay",20.6 µM
same,Ki,human FAS TE [5],0.11 µM
same,partial versus pure non-competitive inhibition (Km/Vmax(i) versus [I]),human FAS TE [5],partial non-competitive inhibitor
same,type of inhibition of FAS TE (double reciprocal plots),human FAS TE [5],non-competitive inhibitors
"COc1cccc(N2C(=O)NC(=O)/C(=C/C/C=C/c3ccccc3[N+](=O)[O-])C2=O)c1 [RDR203 (9), (Z)-1-(3-methoxyphenyl)-5-((E)-4-(2-nitrophenyl)but-3-enylidene)pyrimidine-2,4,6(1H,3H,5H)-trione]",IC50,human FAS TE [1],2 µM
"O=C1NC(=O)C(=Cc2ccc(-c3ccccc3C(=O)O)o2)C(=O)N1 [RDR317 (6), 2-(5-((2,4,6-trioxotetrahydropyrimidin-5(6H)-ylidene)methyl)furan-2-yl)benzoic acid]",IC50,human FAS TE [1],29 µM
